Measurements reported in ChEMBL document CHEMBL3797039, “Bcl-2/MDM2 Dual Inhibitors Based on Universal Pyramid-Like α-Helical Mimetics” (J Med Chem, 2016).
The source made the active and inactive calls. No cut-off for these calls is given here.

What was measured:
HCT-116 [1] = experiment: Effect on p53 expression in human HCT116 p53-/- cells at 10 to 20 uM after 12 hrs by immunoblotting method; assay type: functional, cell-based
[2] = Cell cycle arrest in human HCT116 p53+/+ cells assessed as accumulation at G2/M phase at 5 uM after 24 hrs by propidium iodide staining-based flow cytometric method (reference value: 26%); assay type: functional; details: HCT-116
[3] = biological target: T1, Induced myeloid leukemia cell differentiation protein Mcl-1 (Homo sapiens, UniProt Q07820); experiment: Binding affinity to N-terminal 8x His-tagged MCl-1 (unknown origin) expressed in Escherichia coli BL21 (DE3) by isothermal titration microcalorimetric method
T1 sequence (Q07820 whole entry): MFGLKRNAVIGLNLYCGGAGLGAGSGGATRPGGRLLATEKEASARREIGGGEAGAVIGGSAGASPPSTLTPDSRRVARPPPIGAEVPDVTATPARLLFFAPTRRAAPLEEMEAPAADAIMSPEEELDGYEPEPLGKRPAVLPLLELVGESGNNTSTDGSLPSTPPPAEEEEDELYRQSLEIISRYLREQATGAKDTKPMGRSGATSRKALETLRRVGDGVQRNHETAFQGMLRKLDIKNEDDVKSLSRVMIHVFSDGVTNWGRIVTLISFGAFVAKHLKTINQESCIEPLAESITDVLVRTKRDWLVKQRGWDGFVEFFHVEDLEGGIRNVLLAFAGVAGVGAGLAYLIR

[4] = Cell cycle arrest in human HCT116 p53-/- cells assessed as accumulation at G1 phase at 10 uM after 24 hrs by propidium iodide staining-based flow cytometric method (reference value: 28%); assay type: functional; details: HCT-116
[5] = Cell cycle arrest in human HCT116 p53-/- cells assessed as accumulation at S phase at 10 uM after 24 hrs by propidium iodide staining-based flow cytometric method (reference value: 36%); assay type: functional; details: HCT-116
[6] = biological target: T1, Induced myeloid leukemia cell differentiation protein Mcl-1; experiment: Displacement of FAM-Bid peptide from N-terminal 8x His-tagged MCl-1 (unknown origin) expressed in Escherichia coli BL21 (DE3) after 30 mins by fluorescence polarization assay
HCT-116 [7] = experiment: Effect on p21 expression in human HCT116 p53-/- cells at 10 to 20 uM after 12 hrs by immunoblotting method; assay type: functional, cell-based
[8] = biological target: T2, Apoptosis regulator Bcl-2 (Homo sapiens, UniProt P10415); experiment: Binding affinity to N-terminal 8x His-tagged Bcl-2 (unknown origin) expressed in Escherichia coli BL21 (DE3) by isothermal titration microcalorimetric method
T2 sequence (P10415 whole entry, the tested form may be a part): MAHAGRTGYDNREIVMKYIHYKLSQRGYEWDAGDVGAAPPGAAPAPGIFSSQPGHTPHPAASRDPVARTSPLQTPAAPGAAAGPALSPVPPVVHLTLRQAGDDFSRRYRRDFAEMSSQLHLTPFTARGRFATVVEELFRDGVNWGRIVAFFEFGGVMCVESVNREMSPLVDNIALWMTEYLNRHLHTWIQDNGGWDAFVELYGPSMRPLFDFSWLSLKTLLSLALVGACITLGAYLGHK

[9] = biological target: T3, E3 ubiquitin-protein ligase Mdm2 (Homo sapiens, UniProt Q00987); experiment: Displacement of FAM-p53TAD peptide from N-terminal 8x His-tagged human MDM2 (25 to 108 residues) expressed in Escherichia coli BL21 (DE3) after 30 mins by fluorescence polarization assay
Target sequence in this assay (Q00987 whole entry, the tested form may be a part): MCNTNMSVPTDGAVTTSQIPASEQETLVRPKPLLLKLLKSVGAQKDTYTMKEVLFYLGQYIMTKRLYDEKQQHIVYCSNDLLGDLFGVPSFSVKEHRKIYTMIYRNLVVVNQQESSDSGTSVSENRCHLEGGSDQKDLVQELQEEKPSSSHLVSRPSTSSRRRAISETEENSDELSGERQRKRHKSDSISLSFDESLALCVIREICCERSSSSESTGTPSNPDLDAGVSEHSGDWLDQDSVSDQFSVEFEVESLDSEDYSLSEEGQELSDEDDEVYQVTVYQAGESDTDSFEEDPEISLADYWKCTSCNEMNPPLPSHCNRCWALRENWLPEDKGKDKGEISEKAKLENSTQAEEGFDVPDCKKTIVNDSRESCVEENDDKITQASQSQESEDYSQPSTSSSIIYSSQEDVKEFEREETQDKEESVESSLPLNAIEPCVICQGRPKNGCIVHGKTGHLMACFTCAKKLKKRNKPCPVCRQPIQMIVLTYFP

DMS-53 [10] = experiment: Induction of apoptosis in human DMS53 cells harboring p53 mutant assessed as PARP cleavage at 5 to 10 uM after 12 hrs by immunoblotting method; assay type: functional, cell-based
DMS-53 [11] = experiment: Induction of apoptosis in human DMS53 cells harboring p53 mutant assessed as cytochrome c release at 5 to 10 uM after 12 hrs by immunoblotting method; assay type: functional, cell-based
DMS-53 [12] = experiment: Induction of apoptosis in human DMS53 cells harboring p53 mutant assessed as caspase-3 cleavage at 5 to 10 uM after 12 hrs by immunoblotting method; assay type: functional, cell-based
[13] = Cell cycle arrest in human HCT116 p53+/+ cells assessed as accumulation at G1 phase at 5 uM after 24 hrs by propidium iodide staining-based flow cytometric method (reference value: 31%); assay type: functional; details: HCT-116
HCT-116 [14] = experiment: Effect on MDM2 expression in human HCT116 p53-/- cells at 10 to 20 uM after 12 hrs by immunoblotting method; assay type: functional, cell-based
[15] = Upregulation of p53 mRNA expression in human HCT116 p53+/+ cells at 10 uM after 12 hrs by qPCR method; assay type: functional, cell-based; details: HCT-116
[16] = biological target: T3, E3 ubiquitin-protein ligase Mdm2; experiment: Binding affinity to N-terminal 8x His-tagged human MDM2 (25 to 108 residues) expressed in Escherichia coli BL21 (DE3) by isothermal titration microcalorimetric method
Target sequence in this assay (Q00987 whole entry, the tested form may be a part): as above

[17] = Cell cycle arrest in human HCT116 p53+/+ cells assessed as accumulation at S phase at 5 uM after 24 hrs by propidium iodide staining-based flow cytometric method (reference value: 42%); assay type: functional; details: HCT-116
[18] = Cell cycle arrest in human HCT116 p53-/- cells assessed as accumulation at G2/M phase at 10 uM after 24 hrs by propidium iodide staining-based flow cytometric method (reference value: […]%); assay type: functional; details: HCT-116
[19] = Cell cycle arrest in human HCT116 p53+/+ cells assessed as accumulation at <G1 phase at 5 uM after 24 hrs by propidium iodide staining-based flow cytometric method (reference value: 0.3%); assay type: functional; details: HCT-116
[20] = Cell cycle arrest in human HCT116 p53-/- cells assessed as accumulation at <G1 phase at 10 uM after 24 hrs by propidium iodide staining-based flow cytometric method (reference value: 0.6%); assay type: functional; details: HCT-116
[21] = biological target: T2, Apoptosis regulator Bcl-2; experiment: Displacement of FAM-Bid peptide from N-terminal 8x His-tagged Bcl-2 (unknown origin) expressed in Escherichia coli BL21 (DE3) after 30 mins by fluorescence polarization assay
HCT-116 [22] = experiment: Induction of apoptosis in human HCT116 p53+/+ cells after 48 hrs by Annexin V-FITC staining-based flow cytometric method; assay type: functional, cell-based
[23] = biological target: T2, Apoptosis regulator Bcl-2; experiment: Inhibition of BCl-2/Bim interaction in human DMS53 cells harboring p53 mutant at 5 to 10 uM after 12 hrs by immunoprecipitation method; assay type: cell-based; details: DMS-53
[24] = biological target: T2, Apoptosis regulator Bcl-2; experiment: Inhibition of BCl-2/Bax interaction in human DMS53 cells harboring p53 mutant at 5 to 10 uM after 12 hrs by immunoprecipitation method; assay type: cell-based; details: DMS-53
[25] = biological target: T3, E3 ubiquitin-protein ligase Mdm2; experiment: Inhibition of MDM2-p53 interaction in human HCT116 p53+/+ cells assessed as upregulation of p21 expression at 5 to 10 uM after 12 hrs by immunoblotting method; assay type: cell-based; details: HCT-116
Target sequence in this assay (Q00987 whole entry, looked up, the tested form may be a part): as the sequence (Q00987 whole entry, the tested form may be a part) above

[26] = biological target: T3, E3 ubiquitin-protein ligase Mdm2; experiment: Inhibition of MDM2-p53 interaction in human HCT116 p53+/+ cells assessed as upregulation of MDM2 expression at 5 to 10 uM after 12 hrs by immunoblotting method; assay type: cell-based; details: HCT-116
Target sequence in this assay (Q00987 whole entry, looked up, the tested form may be a part): as the sequence (Q00987 whole entry, the tested form may be a part) above

[27] = biological target: T3, E3 ubiquitin-protein ligase Mdm2; experiment: Inhibition of MDM2-p53 interaction in human HCT116 p53+/+ cells assessed as upregulation of p53 expression at 5 to 10 uM after 12 hrs by immunoblotting method; assay type: cell-based; details: HCT-116
Target sequence in this assay (Q00987 whole entry, looked up, the tested form may be a part): as the sequence (Q00987 whole entry, the tested form may be a part) above

[28] = biological target: T1, Induced myeloid leukemia cell differentiation protein Mcl-1; experiment: Inhibition of Mcl-1/Bax interaction in human DMS53 cells harboring p53 mutant at 5 to 10 uM after 12 hrs by immunoprecipitation method; assay type: cell-based; details: DMS-53
[29] = biological target: T2, Apoptosis regulator Bcl-2; experiment: Binding affinity to 15N-labeled Bcl-2 (unknown origin) by 2D 1H-15N HSQC NMR spectroscopic method
[30] = biological target: T1, Induced myeloid leukemia cell differentiation protein Mcl-1; experiment: Inhibition of Mcl-1/Bim interaction in human DMS53 cells harboring p53 mutant at 5 to 10 uM after 12 hrs by immunoprecipitation method; assay type: cell-based; details: DMS-53

SMILES | Ki [6] [nM] | Ki [9] [nM] | Ki [21] [nM] | further results
CC(C)Oc1ccc(C(=O)Nc2c(C(=O)O)nn(-c3ccc(Oc4ccccc4)cc3)c2-c2ccc(OC(C)C)cc2)cc1 | 161 | 107 | 140 | Activity (HCT-116 [1]): inactive; Activity [2]: 47%; Kd [3]: 265 nM; Activity [4]: 30%; Activity [5]: 33%; Activity (HCT-116 [7]): inactive; Kd [8]: 290 nM; Activity (DMS-53 [10]): Active; Activity (DMS-53 [11]): Active; Activity (DMS-53 [12]): Active; Activity [13]: 40%; Activity (HCT-116 [14]): inactive; Activity [15]: inactive; Kd [16]: 472 nM; Activity [17]: 6%; Activity [18]: 31%; Activity [19]: 6.8%; Activity [20]: 5.2%
CCOc1ccc(-c2c(NC(=O)c3ccc(C(C)(C)C)cc3)c(C(=O)O)nn2-c2ccc(Oc3ccccc3)cc2)cc1 | 404 | 689 | 406 | 
CCOc1ccc(-c2c(NC(=O)c3ccc(OC(C)C)cc3)c(C(=O)O)nn2-c2ccc(Oc3ccccc3)cc2)cc1 | 81 | 301 | 28 | 
CCOc1ccc(-c2c(NC(=O)c3ccc(OCC(C)C)cc3)c(C(=O)O)nn2-c2ccc(Oc3ccccc3)cc2)cc1 | 393 | 446 | 1040 | 
Cc1cc2c(C(C)C)c(O)c(O)c(C=O)c2c(O)c1-c1c(C)cc2c(C(C)C)c(O)c(O)c(C=O)c2c1O [GOSSYPOL] | 260 | > 25000 |  | 
CN(C)CC[C@H](CSc1ccccc1)Nc1ccc(S(=O)(=O)NC(=O)c2ccc(N3CCN(Cc4ccccc4-c4ccc(Cl)cc4)CC3)cc2)cc1[N+](=O)[O-] |  |  |  | Activity (HCT-116 [22]): Active; Activity [2]: 24%; Activity [4]: 26%; Activity [5]: 32%; inhibition [23]: Active; inhibition [24]: Active; Activity (DMS-53 [10]): Active; Activity (DMS-53 [11]): Active; Activity (DMS-53 [12]): Active; Activity [13]: 28%; inhibition [25]: inactive; Activity [17]: 40%; Activity [18]: 34%; Activity [19]: 7.1%; Activity [20]: 6.4%; inhibition [26]: inactive; inhibition [27]: inactive
O=C(O)c1cc(-c2ccc(OCc3ccccc3)cc2)n(-c2ccccc2)n1 | > 10000 | 19800 | > 10000 | 
CCOc1ccc(-c2cc(C(=O)O)nn2-c2ccccc2)cc1 | 3800 | 3260 | 6090 | 
CC(C)c1ccc(-n2nc(C(=O)O)cc2-c2ccc(OCc3ccccc3)cc2)cc1 | 226 | 616 | 385 | 
COc1ccc(C2=N[C@@H](c3ccc(Cl)cc3)[C@@H](c3ccc(Cl)cc3)N2C(=O)N2CCNC(=O)C2)c(OC(C)C)c1 [NUTLIN-3] | > 10000 |  | > 10000 | Activity [2]: 49%; Activity [4]: 29%; Activity [5]: 35%; inhibition [28]: inactive; inhibition [23]: inactive; Kd [29]: 15000 nM; inhibition [24]: inactive; Activity [13]: 41%; inhibition [30]: inactive; Activity [17]: 8%; Activity [18]: 34%; Activity [19]: 0.9%; Activity [20]: 0.8%
CC(C)COc1ccc(-c2cc(C(=O)O)nn2-c2ccccc2)cc1 | 8110 | 7420 | > 10000 | 
CC(C)c1ccc2/c(=N\c3ccc(Oc4ccccc4)cc3)c3cc(O)c(O)c(O)c3n(C(=O)c3ccc(C(C)(C)C)cc3)c2c1 | 79 | > 25000 | 56 | 
CC(C)Oc1ccc(C(=O)Nc2c(C(=O)O)nn(-c3ccc(Oc4ccccc4)cc3)c2-c2ccc(OCc3ccccc3)cc2)cc1 | > 10000 | 4470 | > 10000 | 
CCOc1ccc(-c2c(NC(=O)c3ccccc3)c(C(=O)O)nn2-c2ccc(Oc3ccccc3)cc2)cc1 | 635 | 1130 | 855 | 
COC(=O)c1nn(-c2ccc(Oc3ccccc3)cc2)c(-c2ccc(OC(C)C)cc2)c1NC(=O)c1ccc(OC(C)C)cc1 | 4520 | 4280 | 5160 | 
CC(C)COc1ccc(C(=O)Nc2c(C(=O)O)nn(-c3ccc(Oc4ccccc4)cc3)c2-c2ccc(OC(C)C)cc2)cc1 | 722 | 422 | 1400 | 
CC(C)Oc1ccc(-c2cc(C(=O)O)nn2-c2ccc(Oc3ccccc3)cc2)cc1 | 371 | 712 | 932 | 
O=C(O)c1cc(-c2ccccc2)n(-c2ccccc2)n1 | > 10000 | > 25000 | > 10000 | 
CCOc1ccc(-c2cc(C(=O)O)nn2-c2ccc(Oc3ccccc3)cc2)cc1 | 451 | 1030 | 694 | 
CC(C)Oc1ccc(-c2cc(C(=O)O)nn2-c2ccc(C(C)C)cc2)cc1 | 2390 | 2140 | 5250 | 
Cc1ccc(/N=c2\c3ccc(C)cc3n(C(=O)c3ccc(C(C)(C)C)cc3)c3c(O)c(O)c(O)cc23)cc1 | 247 | 24300 | 207 | 
CC(C)Oc1ccc(-c2cc(C(=O)O)nn2-c2ccccc2)cc1 | 3620 | 2290 | 7000 | 
CC(C)Oc1ccc(C(=O)Nc2c(C(=O)O)nn(-c3ccc(C(C)C)cc3)c2-c2ccc(OCc3ccccc3)cc2)cc1 | 2600 | 2190 | > 10000 | 
